In patent publication US12473304B2, “Heterocyclic PAD4 inhibitors” (BRISTOL-MYERS SQUIBB COMPANY, priority 2020, dated 2025):

Target: human PAD4 (hPAD4) (Homo sapiens (Human), UniProt Q9UM07)
Assay: RFMS Human PAD4 Functional Assay 1
Type: biochemical
Conditions: RFMS assay 1; 5 nM hPAD4, 250 μM BAEE substrate, 50 μM calcium, 37° C.
Method in brief: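 Citrullination product read by RapidFire triple-quad MRM against a modified-citrulline internal standard, after TCA stop and 30 min phenyl glyoxal step at 37 °C. Reaction: 250 μM BAEE, 5 nM human PAD4, 90 min at 37 °C, pH 7.5 HEPES buffer with 50 μM calcium and 5 μM TPEN, following 30 min compound–enzyme preincubation (max 50 μM).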

Chain of human PAD4 (hPAD4) (Q9UM07 whole entry): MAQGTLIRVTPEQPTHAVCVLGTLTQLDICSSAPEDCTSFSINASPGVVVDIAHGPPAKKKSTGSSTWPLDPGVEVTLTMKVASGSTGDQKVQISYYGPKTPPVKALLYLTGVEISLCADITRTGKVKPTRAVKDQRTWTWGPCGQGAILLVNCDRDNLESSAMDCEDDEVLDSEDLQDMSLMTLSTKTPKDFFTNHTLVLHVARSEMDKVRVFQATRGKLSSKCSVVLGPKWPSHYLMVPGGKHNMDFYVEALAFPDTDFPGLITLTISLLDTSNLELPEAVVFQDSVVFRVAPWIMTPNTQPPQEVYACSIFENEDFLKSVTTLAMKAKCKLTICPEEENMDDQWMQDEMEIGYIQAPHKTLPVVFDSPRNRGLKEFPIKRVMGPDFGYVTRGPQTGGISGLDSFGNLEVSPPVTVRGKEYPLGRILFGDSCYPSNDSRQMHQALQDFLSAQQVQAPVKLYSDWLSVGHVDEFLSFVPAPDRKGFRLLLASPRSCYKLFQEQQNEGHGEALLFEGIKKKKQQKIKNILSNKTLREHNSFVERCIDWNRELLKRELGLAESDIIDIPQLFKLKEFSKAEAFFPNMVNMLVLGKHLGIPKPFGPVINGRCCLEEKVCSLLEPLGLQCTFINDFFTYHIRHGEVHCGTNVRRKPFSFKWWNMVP

SMILES | IC50
COc1cc(C(=O)N2CCC[C@@H](N)C2)cn2nc(-c3cc4cccc(OCCn5cc(N)cn5)c4n3CC3CC3)c(C)c12 [Example 558, (R)-(2-(7-(2-(4-Amino-1H-pyrazol-1-yl)ethoxy)-1-(cyclopropylmethyl)-1H-indol-2-yl)-4-methoxy-3-methylpyrazolo[1,5-a]pyridin-6-yl)(3-aminopiperidin-1-yl)methanone] | 100 nM
COc1cc(C(=O)N2CCC[C@@H](N)C2)cn2nc(-c3cc4cccc(OC[C@@H]5CCC(=O)N5)c4n3CC3CC3)c(C)c12 [Example 559, (S)-5-(((2-(6-((R)-3-Aminopiperidine-1-carbonyl)-4-methoxy-3-methylpyrazolo[1,5-a]pyridin-2-yl)-1-(cyclopropylmethyl)-1H-indol-7-yl)oxy)methyl)pyrrolidin-2-one] | 80 nM
COc1cc(C(=O)N2C[C@H](N)C[C@@H](F)C2)cn2nc(-c3cc4cccc(OC[C@@H]5CCC(=O)N5)c4n3CC3CC3)c(C)c12 [Example 560, (S)-5-(((2-(6-((3R,5R)-3-Amino-5-fluoropiperidine-1-carbonyl)-4-methoxy-3-methylpyrazolo[1,5-a]pyridin-2-yl)-1-(cyclopropylmethyl)-1H-indol-7-yl)oxy)methyl)pyrrolidin-2-one] | 160 nM
COc1cc(C(=O)N2CCC[C@@H](N)C2)cn2nc(-c3cc4cccc(OC[C@H]5CCC(=O)N5)c4n3CC3CC3)c(C)c12 [Example 561, (R)-5-(((2-(6-((R)-3-Aminopiperidine-1-carbonyl)-4-methoxy-3-methylpyrazolo[1,5-a]pyridin-2-yl)-1-(cyclopropylmethyl)-1H-indol-7-yl)oxy)methyl)pyrrolidin-2-one] | 640 nM
Cc1c(-c2cc3cccc(OC[C@@H]4CCC(=O)N4)c3n2CC2CC2)nn2cc(C(=O)N3C[C@H](N)C[C@@H](F)C3)cc(F)c12 [Example 568, (S)-5-(((2-(6-((3R,5R)-3-Amino-5-fluoropiperidine-1-carbonyl)-4-fluoro-3-methylpyrazolo[1,5-a]pyridin-2-yl)-1-(cyclopropylmethyl)-1H-indol-7-yl)oxy)methyl)pyrrolidin-2-one] | 60 nM
Cc1c(-c2cc3cccc(OC[C@@H]4CCC(=O)N4)c3n2CC2CC2)nn2cc(C(=O)N3CCC[C@@H](N)C3)cc(F)c12 [Example 569, (S)-5-(((2-(6-((R)-3-Aminopiperidine-1-carbonyl)-4-fluoro-3-methylpyrazolo[1,5-a]pyridin-2-yl)-1-(cyclopropylmethyl)-1H-indol-7-yl)oxy)methyl)pyrrolidin-2-one] | 20 nM

Next, values leading:

IC50 | SMILES
180 nM | Cc1c(-c2cc3cccc(OC[C@H]4CCC(=O)N4)c3n2CC2CC2)nn2cc(C(=O)N3CCC[C@@H](N)C3)cc(F)c12 [Example 570, (R)-5-(((2-(6-((R)-3-Aminopiperidine-1-carbonyl)-4-fluoro-3-methylpyrazolo[1,5-a]pyridin-2-yl)-1-(cyclopropylmethyl)-1H-indol-7-yl)oxy)methyl)pyrrolidin-2-one]
20 nM | Cc1c(-c2cc3cccc(OCCn4ccnc4)c3n2CC2CC2)nn2cc(C(=O)N3C[C@H](N)C[C@@H](F)C3)ccc12 [Example 574, (2-(7-(2-(1H-Imidazol-1-yl)ethoxy)-1-(cyclopropylmethyl)-1H-indol-2-yl)-3-methylpyrazolo[1,5-a]pyridin-6-yl)((3R,5R)-3-amino-5-fluoropiperidin-1-yl)methanone]
60 nM | Cc1c(-c2cc3cccc(OCCn4ccnc4)c3n2CC2CC2)nn2cc(C(=O)N3CCC[C@@H](N)C3)ccc12 [Example 575, (R)-(2-(7-(2-(1H-lmidazol-1-yl)ethoxy)-1-(cyclopropylmethyl)-1H-indol-2-yl)-3-methylpyrazolo[1,5-a]pyridin-6-yl)(3-aminopiperidin-1-yl)methanone]
60 nM | Cc1c(-c2cc3cccc(OCCn4cncn4)c3n2CC2CC2)nn2cc(C(=O)N3CCC[C@@H](N)C3)ccc12 [Example 580, (R)-(2-(7-(2-(1H-1,2,4-Triazol-1-yl)ethoxy)-1-(cyclopropylmethyl)-1H-indol-2-yl)-3-methylpyrazolo[1,5-a]pyridin-6-yl)(3-aminopiperidin-1-yl)methanone]
